Data on one compound can be found in PMC9783868, “Indoline-5-Sulfonamides: A Role of the Core in Inhibition of Cancer-Related Carbonic Anhydrases, Antiproliferative Activity and Circumventing of Multidrug Resistance” (Pharmaceuticals, 2022).

Test [1] has as its system MCF7 cells. In words: Antiproliferative activity, MTT test. As to conditions: Homo sapiens, MTT assay after 72 h exposure. The test is classed as cell-based. Here is the method: A series of synthesized indoline-5-sulfonamides was tested on the MCF7 cancer cell line under normoxia and hypoxia using the MTT test.
The MDR subline K562/4 [77] (kind gift of Dr. Alexander Shtil, Blokhin N.N. National Medical Research Center of Oncology) was obtained by stepwise selection of K562 cells for survival under continuous exposure to Dox. This subline expresses the MDR1 gene and functional P-gp and is characterized by a high resistance index for Dox. […] Cells in the logarithmic phase of growth were used in the experiments. The growth inhibitory activity of compounds was assessed by the MTT test based on the metabolism of the MTT reagent (3-[4,5-dimethylthiazol-2-yl]-2,5-diphenyltetrazolium bromide) (Applichem) in living cells, with modifications as described previously in [49]. Compounds at different concentrations in 100 μL of the appropriate medium were added, and the cells were grown for 72 h. The hypoxia (1% O2) conditions were simulated in Binder multigas incubator, as described in [49]. After incubation with compounds, the medium was removed, the MTT reagent that was dissolved in the medium was added to the final concentration of 0.2 mg/mL to each well, and the incubation was performed for 2 h. Then the cell supernatants were removed, and purple formazan crystals were dissolved in 100% DMSO (350 μL per well). Culture plates were gently shaken, and the absorbance was measured at 571 nm with a reference wavelength of 630 nm on a MultiScan reader (ThermoFisher, Waltham, MA, USA). The viability of the cells was expressed as a percentage of the control. Dose-response curves were analyzed by regression analysis using sigmoid curves (Log(concentration) vs. normalized absorbance).
All results were reported as means ± SD. One-way analysis of variance was used for the analysis of data. Differences were defined as significant at p < 0.05. GraphPad Prism7 (GraphPad Software, San Diego, CA, USA) was used for the determination of the half-maximal inhibitory concentration (IC50) values.

Test [2] concerns A431 skin cancer cells. The test can be described thus: Antiproliferative activity, MTT test. The format is cell-based, human. The following applies: 72 h, hypoxic conditions. An excerpt: To evaluate the influence of CA inhibition on the antiproliferative activity, we selected five compounds 4b, f, m, n and 10 with different inhibition profiles against CA IX for in-depth testing on cancer cells with increased CA IX expression. The database www.proteinatlas.org (accessed on 13 October 2022) contains data on gene expression in various cell lines. According to the data obtained from this database, A431 cells express CA IX at a very high level, which distinguishes them from human cell lines belonging to other tissues [https://www.proteinatlas.org/ENSG00000107159-CA9/cell+line (accessed on 13 October 2022)]. A431 cells are skin cancer cells, and their growth has already been intensely analyzed in hypoxia. […] Moreover, Ren and colleagues described that hypoxia modulates cellular pathways in A431 cells, which are associated with radioresistance and enhanced migration. Given the observations described above, we were expecting to reveal the high antiproliferative activity of the selected compounds against skin cancer cells. […] In hypoxia, the activity of tested compounds was increased, but the 50% inhibition of growth was never achieved.
The MCF7 human breast, A431 human skin cancer cells and K562 (ATCC CCL-243) chronic myelogenous leukemia cells were obtained from the ATCC collection. The MDR subline K562/4 [77] […] The growth inhibitory activity of compounds was assessed by the MTT test based on the metabolism of the MTT reagent (3-[4,5-dimethylthiazol-2-yl]-2,5-diphenyltetrazolium bromide) (Applichem) in living cells, with modifications as described previously in [49]. […] Culture plates were gently shaken, and the absorbance was measured at 571 nm with a reference wavelength of 630 nm on a MultiScan reader (ThermoFisher, Waltham, MA, USA). The viability of the cells was expressed as a percentage of the control. Dose-response curves were analyzed by regression analysis using sigmoid curves (Log(concentration) vs. normalized absorbance).

Structures are written as SMILES. Like-named read-outs stand apart in the source and are kept apart here.

As usually defined, the IC50 is the concentration needed to halve the response being measured. As to `NS(=O)(=O)c1ccc2c(c1)CCN2C(=O)c1cccc(Cl)c1` [Compound 4f, 1-(3-Chlorobenzoyl)indoline-5-sulfonamide], the half-maximal inhibitory concentration (IC50) worked out at 12.9 ± 1.2 µM in test [1] (hypoxia (1% O2), read-out: IC50 against MCF7 Cells, Hypoxia) and 24.5 ± 1.9 µM in test [1] (normoxia, read-out: IC50 against MCF7 Cells, Normoxia). Further, the “inhibition of growth of A431 cells, hypoxia” value in test [2] is reported as 44%.
